In patent US5773424A, “Treatment of toxoplasmosis” (priority 1994, dated 1998):
Read-outs that look alike come from different tables or passages of the source.

Key:
extracts of human liver = experiment: Inhibition of phosphorylation of NBMPR; assay type: biochemical
Protocol: (§1) Enzyme assay. […] Incubation was carried out at 37° C.

[1] = test system: extracts from human liver; experiment: Inhibition of phosphorylation of adenosine; assay type: biochemical; conditions: human liver extract
Protocol: as §1

[2] = test system: extracts from mouse liver; experiment: Inhibition of phosphorylation of adenosine; assay type: biochemical; conditions: mouse liver extract
Protocol: as §1

[3] = test system: extracts of Toxoplasma gondii; experiment: Inhibition of phosphorylation of NBMPR (formation of NBMPR-P); assay type: biochemical
Protocol: as §1

[4] = test system: extracts of Toxoplasma gondii; experiment: Inhibition of phosphorylation of adenosine (or inosine) to nucleoside 5'-monophosphate; assay type: biochemical; conditions: T. gondii extract
Protocol: as §1

[5] = test system: Toxoplasma gondii grown in human fibroblasts; experiment: Plaque formation in human fibroblasts; assay type: cell-based; conditions: control (0 μM) 21 ± 3.5
Text: To investigate the effect of metabolizing NBMPR on the survival of T. gondii, the number and size of plaque formation by T. gondii on human fibroblasts was investigated. NBMPR decreased the number and size of toxoplasma in human fibroblasts (Table 13).

[6] = test system: extracts from different strains of Toxoplasma; experiment: Conversion of NBMPR to NBMPR-P in the presence of ATP or PRPP by extracts of different strains; assay type: biochemical, Toxoplasma gondii
Protocol: Maintenance of T. gondii. The wild type RH, the adenosine kinase deficient mutant ara-A^R (R), and the phosphoribosyltransferase deficient mutants (HGPRT^- and Tnx^R-1) strains of T. gondii were propagated by intraperitoneal passage in female CD1 mice (20-25 g). Mice were injected intraperitoneally (i.p.) with an inoculum (10^6 cells) of T. gondii contained in 0.2 ml of sterile phosphate buffered saline (PBS), pH 7.2, and were sacrificed after 2-3 days by inhalation of ether. The parasites were harvested from the peritoneal cavity by injection, aspiration and reinjection of 3-5 mL of PBS (2-3 times). The peritoneal fluid was examined microscopically to determine the concentration of T. gondii and to ascertain the extent of contamination by host cells.
as §1
Phosphoribosyltransferase activity was measured by following the formation of [^3 H] NMMPR-P from [^3 H] NBMPR and 5-phosphoribosyl-1-pyrophosphate (PRPP). The standard reaction mixtures contained 50 mM Tris-Cl (pH 7.4), 10 μM [^3 H] NBMPR (55 Ci/mol), 4 mM PRibPP, 20 mM MgCl2, 50 mM KCI, and 50 μl of enzyme extract (4-8 μg of protein) in a final volume of 100 μl. Reactions were incubated at 37° C. and terminated in boiling water bath for 2 minutes. Precipitated proteins were removed by centrifugation. A 10 μl aliquot of the resulting supernatant was spotted on cellulose thin layer chromatography plates which were developed with 5% dibasic potassium phosphate. The average Rf values were as follows: NBMPR, 0.28; NBMP, 0.16; NBMPR-P, 0.44. The radioactivity was quantified using a Berthold TLC Linear Analyzer (Wallac, Inc., Gaithersburg, Md.). All assays were run under conditions in which velocity was linear with respect to time and amount of enzyme extract. Enzyme velocity was calculated by multiplying the fraction of nucleotide formed from nucleoside by the amount of nucleoside in the assay divided by the incubation time. Specific activity was estimated by dividing enzyme velocity by the amount of protein in the assay.

[7] = test system: extracts of Toxoplasma gondii; conditions: 50 µM; for Percent conversion of NBMPR to NBMP: t. gondii extract; for Percent conversion of NBMPR to NBMPR-P / Percent conversion of NBMPR to nucleobase (NBMP): toxoplasma gondii
Protocol: (§2) Preparation of extracts. Extracts of T. gondii were prepared by homogenizing parasites or tissues in ice cold (3:1, v/w) 50 mM Tris-Cl buffer (pH 7.4) containing 1 mM EDTA, 1 mM dithiothreitol with a polytron homogenizer (Brinkmann, Westbury, N.Y.) and the homogenates were centrifuged at 105,000×g for 1 hour at 4° C. The supernatant fluids (cytosol) were collected and used as the enzyme source.
(§3) Conversion assays. To measure the percent conversion of NBMPR to NBMPR-P and nucleobase (NBMP) by extracts of Toxoplasma gondii and mouse spleen, 50 mM Tris-Cl (pH 7.4), 5 mM MgCl2, 2.5 mM ATP, 5 mM creatine phosphate, creatine phosphokinase, 50 μM [^3 H-(G)] NBMPR (1.95 μCi/nmol), and 10 μl of cytosol extract were reacted in a final volume of 20 μl and incubated at 37° C. Reaction was initiated by addition of extract and terminated by boiling for 3 minutes. In a second reaction, 25 mM KCN was added to the reaction mixture.
(§4) The plates for the assays of NBMPR were developed in n-butanol/ethyl acetate/NH4 /methanol (49:28:28:21, v/v/v/v). The Rf values were: NBMPR, 0.76; NBMPR-P, 0.50; NBMP, 0.89. The amounts of radioactivity in the substrate (nucleoside) and product (nucleobase and nucleotides) were calculated on a percentage basis using a Berthold LB-284 Automatic TLC-Linear Analyzer.

extracts of mouse spleen = conditions: spleen cytosol extract, 50 µM
Protocol: as §2, §3, §4

[8] = Toxicity of compounds, MTT assay; assay type: cell-based, human; conditions: human, foreskin fibroblasts
Protocol: Toxicity of compounds. Toxicity of the different doses of the various analogues were performed at least in triplicates, using a modification of the Microculture Tetrazolium (MTT) assay and uninfected monolayers of human foreskin fibroblasts. Briefly, confluent cells were incubated for at least 24 hours in the 96-well flat bottom microtiterplates (~10^5 /200 μL/well) and incubated at 37° C. in 5% CO2, 95% air to allow the cells to attach. The medium was then replaced with 200 μL of fresh medium. […] The cultures were then incubated for 48 hours, after which 50 μL of sterile MTT solution (2 mg/1 mL PBS) was added to each well. MTT solution was sterilized by filtration through 0.22 μm filters (Costar, Cambridge, Mass.). After 4 hours incubation, the medium was removed and 100 μL of dimethylsulfoxide (DMSO) was added to each well and the plates were shaken gently for 2-3 minutes to dissolve the formed formazan crystals. The absorbance was measured at 540 nm, using a computerized microtiterplate reader (Themomax, Molecular Division)

[9] = test system: Toxoplasma gondii grown in human fibroblasts; experiment: Incorporation of radiolabeled uracil (parasite survival); assay type: cell-based; conditions: Toxoplasma gondii, Fibroblast, [5,6-3H]uracil incorporation, read-out: percent survival of Toxoplasma gondii grown in human fibroblasts
Protocol: Incorporation of Radiolabeled Uracil. […] Uptake and incorporation of radiolabeled uracil into nucleic acids of T. gondii were carried out, at least in triplicates, in tissue culture, using monolayers of human foreskin fibroblasts infected with T. gondii. The fibroblasts were cultured in no more than 30 passages in Dulbecco's modified Eagle medium, containing 100 units/mL penicillin G and 100 μg/mL streptomycin sulfate, and 10% FBS, pH 7.2. Briefly, confluent cells (4-5 day incubation) were cultured for 24 hours in the 24-well flat bottom microtiterplates (~5×10^5 /1 mL/well) and incubated at 37° C. in 5% CO2, 95% air to allow the cells to attach. The medium was then removed and the cells were infected with isolated T. gondii in medium with 3% FBS (1 parasite/cell). After 1 hour incubation, the cultures were washed with media with 10% FBS to remove extracellular parasites. FBS was maintained at a final concentration of 10%. […] After an additional 18 hours incubation, the medium was replaced with 1 mL drug free media containing […] (2 μCi/mL) and incubated for another 6 hours, after which the media was removed. The fibroblasts were released from the wells by trypsinization with the addition of 200 μL trypsin/EDTA (2.5×) to each well. After 10 minutes incubation, 1 mL of ice cold 10% trichloroacetic acid (TCA) was added to each well. The plates were then placed on a shaker to insure the detachment of the cells. The suspended contents of each well were filtered through GF/A 2.4 cm glass microfiber filters (Whatman, Hillsboro, Oreg.), which were prewashed each with 1 mL double distilled H2 O and dried. After filtration, the filters were washed with 10 mL methanol, left to dry, and then placed in scintillation vials containing 5 mL of Econo-Safe scintillation fluor (Research Products International Corp., Mount Prospect, Ill.), and radioactivity was counted using an LS5801 Beckman scintillation counter.

[10] = molecular target: T. gondii adenosine kinase (Toxoplasma gondii, UniProt Q9TVW2); experiment: biochemical; conditions: AppKi for inhibition of T. gondii adenosine kinase, 5 μM adenosine; ± range, at least two estimations
Chain of T. gondii adenosine kinase (Q9TVW2 whole entry): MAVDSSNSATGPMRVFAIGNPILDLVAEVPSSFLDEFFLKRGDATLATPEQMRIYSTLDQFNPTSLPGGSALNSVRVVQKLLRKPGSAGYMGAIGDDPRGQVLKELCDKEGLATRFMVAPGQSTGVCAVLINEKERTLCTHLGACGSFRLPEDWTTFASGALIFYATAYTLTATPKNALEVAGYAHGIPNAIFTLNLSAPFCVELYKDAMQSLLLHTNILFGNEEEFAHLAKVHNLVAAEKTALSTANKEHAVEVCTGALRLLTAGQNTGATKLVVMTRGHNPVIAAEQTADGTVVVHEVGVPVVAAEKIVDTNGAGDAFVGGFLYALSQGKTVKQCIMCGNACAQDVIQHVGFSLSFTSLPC

Nc1nc2c(nc(N)n2[C@@H]2O[C@H](CO)[C@@H](O)[C@H]2O)c(=O)[nH]1 [8-Aminoguanosine, reference compound]
% Inhibition of phosphorylation of NBMPR, Human Liver (extracts of human liver; 25 μM): 0% | % Inhibition of phosphorylation of NBMPR, Human Liver (extracts of human liver; 50 μM): 0% | % Inhibition of phosphorylation of NBMPR, Human Liver (extracts of human liver; 100 μM): 0% | Effect on the phosphorylation of adenosine, in words [1]: no effect | Effect on the phosphorylation of adenosine, in words [2]: no effect | % Inhibition of phosphorylation of NBMPR, T. gondii ([3]; 25 μM): 0% | % Inhibition of phosphorylation of NBMPR, T. gondii ([3]; 50 μM): 0% | % Inhibition of phosphorylation of NBMPR, T. gondii ([3]; 100 μM): 0% | Effect on the phosphorylation of adenosine, in words [4]: no effect

O=[N+]([O-])c1ccc(CSc2ncnc3c2ncn3[C@@H]2O[C@H](CO)[C@@H](O)[C@H]2O)cc1 [Compound 21, 6-(p-Nitrobenzyl)mercaptopurine riboside (NBMPR)]
Number of Plaques ([5]; NBMPR 33 μM): 23 ± 0.7 | Number of Plaques ([5]; NBMPR 100 μM): 3 ± 1.4 | Percent conversion of NBMPR to NBMPR-P ([6]; strain Ara-A^R, +ATP): 0% | Percent conversion of NBMPR to NBMPR-P ([6]; strain Ara-A^R, +PRPP): 3.8 ± 0.2% | Percent conversion of NBMPR to NBMPR-P ([6]; strain HGPRT^-, +ATP): 2.6 ± 1.3% | Percent conversion of NBMPR to NBMPR-P ([6]; strain HGPRT^-, +PRPP): 0% | Percent conversion of NBMPR to NBMPR-P ([6]; strain RH, +ATP): 0.7 ± 0.2% | Percent conversion of NBMPR to NBMPR-P ([6]; strain RH, +PRPP): 4.3 ± 0.3% | Percent conversion of NBMPR to NBMPR-P ([6]; strain Thx^R-1, +ATP): 2.0 ± 0.6% | Percent conversion of NBMPR to NBMPR-P ([6]; strain Thx^R-1, +PRPP): 0% | Percent conversion of NBMPR to NBMP ([7]; 0.25 h): 0.9 ± 0.3% | Percent conversion of NBMPR to NBMP ([7]; 0.5 h): 2.8 ± 3.8% | Percent conversion of NBMPR to NBMP ([7]; 1 h): 4.0 ± 1.3% | Percent conversion of NBMPR to NBMP ([7]; 2 h): 9.5 ± 1.3% | Percent conversion of NBMPR to NBMP ([7]; 4 h): 14.3 ± 3.3% | Percent conversion of NBMPR to NBMPR-P ([7]; cytosol extract with kcn, 0.25 h): 0.5 ± 0.1% | Percent conversion of NBMPR to NBMPR-P ([7]; cytosol extract with kcn, 0.5 h): 1.1 ± 0.1% | Percent conversion of NBMPR to NBMPR-P ([7]; cytosol extract with kcn, 1 h): 3.7 ± 2.5% | Percent conversion of NBMPR to NBMPR-P ([7]; cytosol extract with kcn, 2 h): 5.8 ± 0.7% | Percent conversion of NBMPR to NBMPR-P ([7]; cytosol extract with kcn, 4 h): 11.8 ± 4.8% | Percent conversion of NBMPR to NBMPR-P ([7]; cytosol extract, 0.25 h): 2.1 ± 0.5% | Percent conversion of NBMPR to nucleobase (NBMP) ([7]; cytosol extract, 0.25 h): 8.0 ± 0.4% | Percent conversion of NBMPR to NBMPR-P ([7]; cytosol extract, 0.5 h): 3.2 ± 0.4% | Percent conversion of NBMPR to nucleobase (NBMP) ([7]; cytosol extract, 0.5 h): 7.8 ± 3.7% | Percent conversion of NBMPR to NBMPR-P ([7]; cytosol extract, 1 h): 7.8 ± 1.5% | Percent conversion of NBMPR to nucleobase (NBMP) ([7]; cytosol extract, 1 h): 14.8 ± 1.2% | Percent conversion of NBMPR to NBMPR-P ([7]; cytosol extract, 2 h): 9.4 ± 1.0% | Percent conversion of NBMPR to nucleobase (NBMP) ([7]; cytosol extract, 2 h): 9.4 ± 2.8% | Percent conversion of NBMPR to NBMPR-P ([7]; cytosol extract, 4 h): 15.1 ± 4.4% | Percent conversion of NBMPR to nucleobase (NBMP) ([7]; cytosol extract, 4 h): 10.4 ± 6.2% | Percent conversion of NBMPR to NBMPR-P (extracts of mouse spleen; 0.25 h): 0% | Percent conversion of NBMPR to nucleobase (NBMP) (extracts of mouse spleen; 0.25 h): 0% | Percent conversion of NBMPR to NBMPR-P (extracts of mouse spleen; 0.5 h): 0% | Percent conversion of NBMPR to nucleobase (NBMP) (extracts of mouse spleen; 0.5 h): 0% | Percent conversion of NBMPR to NBMPR-P (extracts of mouse spleen; 1 h): 0% | Percent conversion of NBMPR to nucleobase (NBMP) (extracts of mouse spleen; 1 h): 0% | Percent conversion of NBMPR to NBMPR-P (extracts of mouse spleen; 2 h): 0% | Percent conversion of NBMPR to nucleobase (NBMP) (extracts of mouse spleen; 2 h): 0% | Percent conversion of NBMPR to NBMPR-P (extracts of mouse spleen; 4 h): 0% | Percent conversion of NBMPR to nucleobase (NBMP) (extracts of mouse spleen; 4 h): 0% | viability at 48 h, 5 µM [8]: 98.8% | viability at 48 h, 10 µM [8]: 97.1% | viability at 48 h, 25 µM [8]: 96.3% | viability at 48 h, 50 µM [8]: 95.4% | activity at 5 µM ([9]; 5 μM): 74.3% | activity at 10 µM ([9]; 10 μM): 55.5% | activity at 25 µM ([9]; 25 μM): 23.1% | activity at 50 µM ([9]; 50 μM): 6.7%

Nc1ncnc2c([C@@H]3O[C@H](CO)[C@@H](O)[C@H]3O)n[nH]c12 [Compound 81, 8-Aza-9-deazaadenosine (formycin A)]
% Inhibition of phosphorylation of NBMPR, Human Liver (extracts of human liver; 100 μM): 0% | % Inhibition of phosphorylation of NBMPR, Human Liver (extracts of human liver; 250 μM): 0% | % Inhibition of phosphorylation of NBMPR, Human Liver (extracts of human liver; 500 μM): 0% | Effect on the phosphorylation of adenosine, in words [1]: no effect | Effect on the phosphorylation of adenosine, in words [2]: no effect | % Inhibition of phosphorylation of NBMPR, T. gondii ([3]; 100 μM): 0% | % Inhibition of phosphorylation of NBMPR, T. gondii ([3]; 250 μM): 0% | % Inhibition of phosphorylation of NBMPR, T. gondii ([3]; 500 μM): 0% | Effect on the phosphorylation of adenosine, in words [4]: no effect | Ki [10]: 1.4 mM
